Molecules are shown by their SMILES.

For assay [1], the target named is RON (Homo sapiens, UniProt Q04912). Nature of the assay: Inhibitory activity against RON, TR-FRET kinase assay. The assay is classed as biochemical. The settings on record: TR-FRET enzyme assay. The protocol:
In order to measure the inhibitory activity of each of the compounds of Examples against RON, the IC50 of each of the compounds was measured using Time-resolved fluorescence energy transfer (TR-FRET).
Specifically, the compound was prepared to a concentration of 1 mM in 100% DMSO and was diluted 10 times in a stepwise manner through 3-fold dilution. The compound (2 ul) diluted in a stepwise manner was added to a 96-well-plate containing 48 ul of a 1× kinase reaction buffer (50 mM HEPES (pH 7.4), 0.01% Tween-20, 5 mM DTT, 0.5 mM Na3VO4, 2 mM EGTA, 10 mM MgCl2).
The RON protein was diluted to a concentration of 49.3 nM in a RON storage buffer (50 mM Tris-HCl (pH 7.5), 150 mM NaCl, 0.5 mM EDTA, 0.02% Triton X-100), and then diluted again to a concentration of 0.4 nM in a 1×kinase reaction buffer. As a substrate cocktail, a RON-specific substrate mixed solution (40 uM ULight-labeled Poly GT, 100 nM ATP) was prepared at a concentration 2 times the final reaction concentration.
(§1) Thereafter, a 384-well-plate was prepared, and 2.5 μl of each of the diluted compounds of Examples was added to a corresponding well of experimental group wells, and 2.5 μl of a 4% DMSO solution was dispensed into high control wells and low control wells.
(§2) Thereafter, 2.5 μL of 0.4 nM RON was dispensed into each of the high control wells and the experimental group wells, and 2.5 μL of the 1× kinase reaction buffer was added to the low control wells, and all the wells were centrifuged at room temperature for 40 seconds at 1,000 RPM, and then incubated at room temperature for 20-30 minutes. Then, 5 μL of the substrate cocktail (2×) was dispensed into each well, and all the wells were centrifuged at room temperature for 40 seconds at 1,000 RPM, and then incubated at room temperature for 60 minutes. Thereafter, 5 μL of 30 mM EDTA was added to each well to terminate the reaction, and all the wells were then incubated again at room temperature for 5 minutes. Thereafter, 5 μL of a 4×phosphotyrosine antibody (Perkin Elmer) containing europium was added to each well, and all the wells were then incubated at room temperature for 60 minutes. After the incubation, the 384-well-plate was read with the Vison plate reader. In this case, the excitation wavelength was 340 nm, and the emission wavelength was 620 nm and 665 nm. The IC50 value of each compound of Examples was derived using the GraphPd Prism7 program.
Background: TR-FRET usually uses a lanthanide donor and a delayed reading to cut background.

Assay [2] has as its target cMET (Homo sapiens, UniProt P08581). The assay is described as follows: Inhibitory activity against MET (cMET), TR-FRET kinase assay. The assay is classed as biochemical. As to conditions: TR-FRET enzyme assay. The protocol: In addition, in order to measure the enzyme activity inhibition for cMET, the evaluation was performed in the same manner as the enzyme activity inhibition measurement experiment for RON.
Specifically, the compound was prepared to a concentration of 1 mM in 100% DMSO and was diluted 10 times in a stepwise manner through 3-fold dilution. The compound (2 ul) diluted in a stepwise manner was added to a 96-well-plate containing 48 ul of a 1×kinase reaction buffer (50 mM HEPES (pH 7.4), 0.05% BSA, 0.005% Tween-20, 1 mM DTT, 0.5 mM MnCl2, 20 mM MgCl2).
The cMET protein was diluted to a concentration of 263 nM in a cMET storage buffer (50 mM Tris-HCl (pH 7.5), 150 mM NaCl, 0.05% Brij35, 1 mM DTT, 10% Glycerol), and then diluted again to a concentration of 2 nM in a 1×kinase reaction buffer. As a substrate cocktail, a MET-specific substrate mixed solution (5 uM TK peptide, 10 mM ATP) was prepared at a concentration 2 times the final reaction concentration.
as §1
as §2, with “of 2” for “of 0.4”, “nM cMET” for “nM RON”, “of 90” for “of 30”, “The […]” for “The IC50”

RON, sequence (Q04912 25-1400, species assumed): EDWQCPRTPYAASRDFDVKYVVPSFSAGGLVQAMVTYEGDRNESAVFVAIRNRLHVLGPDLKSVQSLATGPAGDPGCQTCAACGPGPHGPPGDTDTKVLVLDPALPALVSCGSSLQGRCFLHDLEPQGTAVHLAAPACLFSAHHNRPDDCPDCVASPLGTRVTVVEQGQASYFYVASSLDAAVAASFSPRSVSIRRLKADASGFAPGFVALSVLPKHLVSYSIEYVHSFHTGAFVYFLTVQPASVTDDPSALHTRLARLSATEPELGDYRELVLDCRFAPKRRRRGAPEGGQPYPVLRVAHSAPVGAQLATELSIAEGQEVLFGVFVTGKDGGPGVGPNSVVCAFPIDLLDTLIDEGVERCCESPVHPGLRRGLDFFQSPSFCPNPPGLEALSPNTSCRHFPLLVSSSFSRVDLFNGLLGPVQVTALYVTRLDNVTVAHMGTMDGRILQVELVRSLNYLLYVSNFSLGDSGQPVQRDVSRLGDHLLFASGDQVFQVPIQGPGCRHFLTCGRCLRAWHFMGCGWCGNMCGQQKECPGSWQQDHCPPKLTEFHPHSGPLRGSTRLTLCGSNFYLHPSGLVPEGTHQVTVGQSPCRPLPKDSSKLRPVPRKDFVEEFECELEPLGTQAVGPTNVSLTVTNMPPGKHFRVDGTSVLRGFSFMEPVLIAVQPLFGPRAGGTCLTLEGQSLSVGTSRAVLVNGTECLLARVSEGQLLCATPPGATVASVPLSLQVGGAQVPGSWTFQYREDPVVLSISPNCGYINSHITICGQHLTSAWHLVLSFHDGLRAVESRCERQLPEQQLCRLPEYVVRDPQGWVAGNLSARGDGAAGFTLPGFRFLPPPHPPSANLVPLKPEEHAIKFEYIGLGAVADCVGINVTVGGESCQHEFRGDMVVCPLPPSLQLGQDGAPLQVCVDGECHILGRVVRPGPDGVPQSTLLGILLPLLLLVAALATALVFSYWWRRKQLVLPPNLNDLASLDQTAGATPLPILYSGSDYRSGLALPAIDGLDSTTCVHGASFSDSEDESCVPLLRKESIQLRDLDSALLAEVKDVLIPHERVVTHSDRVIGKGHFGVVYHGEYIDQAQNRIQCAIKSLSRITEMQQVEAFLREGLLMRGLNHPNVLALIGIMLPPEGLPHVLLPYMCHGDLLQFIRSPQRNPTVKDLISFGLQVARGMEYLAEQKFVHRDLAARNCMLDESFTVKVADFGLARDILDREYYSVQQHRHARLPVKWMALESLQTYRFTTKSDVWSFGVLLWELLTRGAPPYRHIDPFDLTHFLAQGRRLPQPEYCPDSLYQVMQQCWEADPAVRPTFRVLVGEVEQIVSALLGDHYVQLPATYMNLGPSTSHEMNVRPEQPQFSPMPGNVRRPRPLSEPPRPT
cMET, sequence (P08581 25-1390): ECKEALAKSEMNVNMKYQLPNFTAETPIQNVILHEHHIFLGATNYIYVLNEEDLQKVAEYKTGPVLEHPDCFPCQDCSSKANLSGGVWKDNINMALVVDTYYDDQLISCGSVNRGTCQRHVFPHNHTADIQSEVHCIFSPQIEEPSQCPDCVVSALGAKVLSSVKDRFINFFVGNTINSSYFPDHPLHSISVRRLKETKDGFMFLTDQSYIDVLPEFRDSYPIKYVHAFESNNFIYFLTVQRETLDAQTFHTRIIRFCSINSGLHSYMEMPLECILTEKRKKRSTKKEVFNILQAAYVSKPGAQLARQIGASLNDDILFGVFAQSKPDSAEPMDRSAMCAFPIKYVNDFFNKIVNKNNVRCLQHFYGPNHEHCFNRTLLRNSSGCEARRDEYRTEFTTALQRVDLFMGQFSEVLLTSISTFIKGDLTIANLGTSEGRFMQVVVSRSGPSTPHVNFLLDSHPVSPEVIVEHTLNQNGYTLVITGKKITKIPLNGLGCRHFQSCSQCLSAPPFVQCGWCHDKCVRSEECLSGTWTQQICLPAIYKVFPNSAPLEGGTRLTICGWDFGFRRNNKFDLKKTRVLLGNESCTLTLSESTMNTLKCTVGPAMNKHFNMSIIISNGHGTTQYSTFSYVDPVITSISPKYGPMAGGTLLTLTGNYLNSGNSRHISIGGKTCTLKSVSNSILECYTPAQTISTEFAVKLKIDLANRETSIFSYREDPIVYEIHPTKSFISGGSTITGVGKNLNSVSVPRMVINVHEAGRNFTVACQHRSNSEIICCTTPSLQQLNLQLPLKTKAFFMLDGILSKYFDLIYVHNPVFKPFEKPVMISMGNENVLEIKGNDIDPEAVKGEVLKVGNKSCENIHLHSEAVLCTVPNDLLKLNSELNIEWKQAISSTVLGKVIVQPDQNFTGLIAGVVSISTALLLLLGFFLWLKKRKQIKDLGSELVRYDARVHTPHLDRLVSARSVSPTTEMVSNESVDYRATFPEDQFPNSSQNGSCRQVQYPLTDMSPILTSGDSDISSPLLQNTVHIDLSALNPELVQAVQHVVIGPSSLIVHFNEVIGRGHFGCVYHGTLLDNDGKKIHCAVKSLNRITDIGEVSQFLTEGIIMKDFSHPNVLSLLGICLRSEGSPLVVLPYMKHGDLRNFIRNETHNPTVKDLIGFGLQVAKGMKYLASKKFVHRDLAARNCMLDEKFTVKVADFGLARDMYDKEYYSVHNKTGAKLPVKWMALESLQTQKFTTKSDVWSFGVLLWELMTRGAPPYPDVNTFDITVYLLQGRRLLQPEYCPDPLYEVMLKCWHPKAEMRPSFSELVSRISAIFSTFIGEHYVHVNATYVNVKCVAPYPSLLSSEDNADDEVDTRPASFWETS

Consider `Nc1nccc(Oc2ccc(NC(=O)c3cnn(-c4cncnc4)c3C(F)(F)F)cc2F)c1Cl` [Example 6, N-(4-((2-amino-3-chloropyridin-4-yl)oxy)-3-fluorophenyl)-1-(pyrimidin-5-yl)-5-(trifluoromethyl)-1H-pyrazole-4-carboxamide], for which the IC50 was 50 to 500 nM in assay [1] and greater than 5000 nM in assay [2].

With `Cc1cccnc1-n1ncc(C(=O)Nc2ccc(Oc3ncnc(N)c3Cl)c(F)c2)c1C(F)(F)F` [Example 46, N-[4-(6-amino-5-chloro-pyrimidin-4-yl)oxy-3-fluoro-phenyl]-1-(3-methyl-2-pyridyl)-5-(trifluoromethyl)pyrazole-4-carboxamide], the IC50 in assay [1] was 50 to 500 nM; in assay [2], greater than 5000 nM.

With `CCc1c(C(=O)Nc2ccc(Oc3ccnc(N)c3I)c(F)c2)cnn1-c1ncccc1F` [Example 37, N-(4-((2-amino-3-iodopyridin-4-yl)oxy)-3-fluorophenyl)-5-ethyl-1-(3-fluoropyridin-2-yl)-1H-pyrazole-4-carboxamide], the values for the IC50 in assay [1] and in assay [2] were less than 50 nM and 500 to 5000 nM, respectively.

As to `Cc1ccnc(-n2ncc(C(=O)Nc3ccc(Oc4ccnc(N)c4Cl)c(F)c3)c2C(F)(F)F)n1` [Example 23, N-(4-((2-amino-3-chloropyridin-4-yl)oxy)-3-fluorophenyl)-1-(4-methylpyrimidin-2-yl)-5-(trifluoromethyl)-1 H-pyrazole-4-carboxamide], the IC50 was 50 to 500 nM in assay [1] and greater than 5000 nM in assay [2].

Take `Nc1nccc(Oc2ccc(NC(=O)c3cnn(-c4ccc(F)nn4)c3C(F)(F)F)cc2F)c1Cl` [Example 30, N-(4-((2-amino-3-chloropyridin-4-yl)oxy)-3-fluorophenyl)-1-(6-fluoropyridazin-3-yl)-5-(trifluoromethyl)-1H-pyrazole-4-carboxamide]: the IC50 in assay [1] was 500 to 5000 nM; in assay [2], greater than 5000 nM.

`CC(C)Nc1c(Oc2ccc(NC(=O)c3cnn(-c4ncccc4F)c3C(F)(F)F)cc2F)ccnc1N` [Example 34, N-(4-((2-amino-3-(isopropylamino)pyridin-4-yl)oxy)-3-fluorophenyl)-1-(3-fluoropyridin-2-yl)-5-(trifluoromethyl)-1H-pyrazole-4-carboxamide]: the figures for the IC50 in assay [1] and in assay [2] were less than 50 nM and greater than 5000 nM, respectively.

For the compound `Nc1nccc(Oc2ccc(NC(=O)c3cnn(-c4cccnc4)c3C(F)(F)F)cc2F)c1Cl` [Example 18, N-(4-((2-amino-3-chloropyridin-4-yl)oxy)-3-fluorophenyl)-1-(pyridin-3-yl)-5-(trifluoromethyl)-1H-pyrazole-4-carboxamide], the IC50 in assay [1] was in the range of 50 to 500 nM; in assay [2], 500 to 5000 nM.

In the case of `Nc1nccc(Oc2ccc(NC(=O)c3cnn(-c4ccncc4)c3C(F)(F)F)cc2F)c1Cl` [Example 19, N-(4-((2-amino-3-chloropyridin-4-yl)oxy)-3-fluorophenyl)-1-(pyridin-4-yl)-5-(trifluoromethyl)-1H-pyrazole-4-carboxamide], the IC50 fell in the range of 50 to 500 nM in assay [1] and 500 to 5000 nM in assay [2].

For the compound `Nc1ncnc(Oc2ccc(NC(=O)c3cnn(-c4cc(Cl)ccn4)c3C(F)(F)F)cc2F)c1Cl` [Example 52, N-[4-(6-amino-5-chloro-pyrimidin-4-yl)oxy-3-fluoro-phenyl]-1-(4-chloro-2-pyridyl)-5-(trifluoromethyl)pyrazole-4-carboxamide], the figures for the IC50 in assay [1] and in assay [2] were 500 to 5000 nM and greater than 5000 nM, respectively.

For `Nc1ncnc(Oc2ccc(NC(=O)c3cnn(-c4ncccc4F)c3C(F)(F)F)cc2F)c1Cl` [Example 45, N-[4-(6-amino-5-chloro-pyrimidin-4-yl)oxy-3-fluoro-phenyl]-1-(3-fluoro-2-pyridyl)-5-(trifluoromethyl)pyrazole-4-carboxamide], the IC50 in assay [1] was less than 50 nM; in assay [2], 500 to 5000 nM.

On to `Nc1nccc(Oc2ccc(NC(=O)c3cnn(-c4ccc(F)cn4)c3C(F)(F)F)cc2F)c1Cl` [Example 13, N-(4-((2-amino-3-chloropyridin-4-yl)oxy)-3-fluorophenyl)-1-(5-fluoropyridin-2-yl)-5-(trifluoromethyl)-1H-pyrazole-4-carboxamide], for which the IC50 is 50 to 500 nM in assay [1] and greater than 5000 nM in assay [2].

As to `Nc1ncnc(Oc2ccc(NC(=O)c3cnn(-c4cc(O)ccn4)c3C(F)(F)F)cc2F)c1Cl` [Example 64, N-[4-(6-amino-5-chloro-pyrimidin-4-yl)oxy-3-fluoro-phenyl]-1-(4-hydroxy-2-pyridyl)-5-(trifluoromethyl)pyrazole-4-carboxamide], the IC50 in assay [1] was 50 to 500 nM; in assay [2] it was greater than 5000 nM.

As to `Cc1ccc(-n2ncc(C(=O)Nc3ccc(Oc4ccnc(N)c4Cl)c(F)c3)c2C(F)(F)F)nc1` [Example 16, N-(4-((2-amino-3-chloropyridin-4-yl)oxy)-3-fluorophenyl)-1-(5-methylpyridin-2-yl)-5-(trifluoromethyl)-1H-pyrazole-4-carboxamide], the IC50 in assay [1] is 50 to 500 nM; in assay [2], greater than 5000 nM.

As to `Cc1ccc(-n2ncc(C(=O)Nc3ccc(Oc4ncnc(N)c4Cl)c(F)c3)c2C(F)(F)F)nc1` [Example 48, N-[4-(6-amino-5-chloro-pyrimidin-4-yl)oxy-3-fluoro-phenyl]-1-(5-methyl-2-pyridyl)-5-(trifluoromethyl)pyrazole-4-carboxamide], the IC50 was 500 to 5000 nM in assay [1] and greater than 5000 nM in assay [2].

Take `Nc1ncnc(Oc2ccc(NC(=O)c3cnn(-c4ncccn4)c3C(F)(F)F)cc2F)c1Cl` [Example 59, N-[4-(6-amino-5-chloro-pyrimidin-4-yl)oxy-3-fluoro-phenyl]-1-pyrimidin-2-yl-5-(trifluoromethyl)pyrazole-4-carboxamide]: the IC50 in assay [1] is less than 50 nM; in assay [2], greater than 5000 nM.

In the case of `Nc1ncnc(Oc2ccc(NC(=O)c3nc(-c4ccccc4)cs3)cc2F)c1Cl` [Example 41, N-[4-(6-amino-5-chloro-pyrimidin-4-yl)oxy-3-fluoro-phenyl]-4-phenyl-thiazole-2-carboxamide], the IC50 in assay [1] and in assay [2] was greater than 5000 nM each time.

Consider `Nc1ncnc(Oc2ccc(NC(=O)c3cnn(-c4ccccn4)c3C(F)(F)F)cc2F)c1Cl` [Example 43, N-(4-((6-amino-5-chloropyrimidin-4-yl)oxy)-3-fluorophenyl)-1-(pyridin-2-yl)-5-(trifluoromethyl)-1H-pyrazole-4-carboxamide], for which the IC50 is less than 50 nM in assay [1] and greater than 5000 nM in assay [2].

As to `Cc1cccc(-n2ncc(C(=O)Nc3ccc(Oc4ncnc(N)c4Cl)c(F)c3)c2C(F)(F)F)n1` [Example 49, N-[4-(6-amino-5-chloro-pyrimidin-4-yl)oxy-3-fluoro-phenyl]-1-(6-methyl-2-pyridyl)-5-(trifluoromethyl)pyrazole-4-carboxamide], the IC50 is 500 to 5000 nM in assay [1] and greater than 5000 nM in assay [2].

For `Nc1nccc(Oc2ccc(NC(=O)c3cnn(-c4ncccc4F)c3C(F)(F)F)cc2F)c1I` [Example 28, N-(4-((2-amino-3-iodopyridin-4-yl)oxy)-3-fluorophenyl)-1-(3-fluoropyridin-2-yl)-5-(trifluoromethyl)-1H-pyrazole-4-carboxamide], the values for the IC50 in assay [1] and in assay [2] were less than 50 nM and 500 to 5000 nM, respectively.

What is called IC50 is the midpoint of a concentration-inhibition curve.

The values are drawn from patent publication US20240425480A1, “NOVEL PYRIDINE DERIVATIVE COMPOUND AS RON INHIBITOR” (LG CHEM, LTD., priority 2021, published 2024).
